The record followed here is patent US20080207638A1, “Compounds” (priority 2005, published 2008).

The structures appear in SMILES notation. Where a name gives a salt, the structure may show the parent alone.

One data set in a line: Rat pharmacokinetics. It is filed as in vivo, male CD Sprague Dawley rats. As to conditions: 1 mg/kg i.v., 3 mg/kg oral. On the procedure: Compounds were dosed to male CD Sprague Dawley rats by single intravenous or oral administration at a nominal dose level of 1 mgkg^−1 and 3 mgkg^−1 respectively. Compounds were formulated in 5% DMSO/45% PEG200/50% water. An intravenous profile was obtained by taking serial or terminal blood samples at 0.083, 0.25, 0.5, 1, 2, 4, and 7 h post-dose. An oral profile was obtained by taking serial or terminal blood samples at 0.25, 0.5, 1, 2, 4, 7 and 12 h post-dose. Blood samples were taken directly into heparinised tubes. Blood samples were prepared by protein precipitation and subjected to quantitative analysis by LC-MS/MS using compound-specific mass transitions. Drug concentration-time profiles were generated and non-compartmental PK analysis used to generate estimates of half-life, clearance, volume of distribution and oral bioavailability.

The next data set is described as follows: Dog pharmacokinetics. It is filed as in vivo, male Beagle dogs. As to conditions: 1 mg/kg i.v., 2 mg/kg oral. On the procedure: Compounds were dosed to male Beagle dogs by single intravenous or oral administration at a nominal dose level of 1 mgkg^−1 and 2 mgkg^−1 respectively. The study was carried out according to a crossover design such that the same dog was used for both dosing events and the dosing events occurred 1 week apart. Compounds were formulated in 5%DMSO/45%Peg2oO/50%water. An intravenous profile was obtained by taking serial blood samples at 0.083, 0.25, 0.5, 0.75, 1, 2, 4, 6 & 12 h post-dose. An oral profile was obtained by taking serial blood samples at 0.25, 0.5, 0.75, 1, 2, 4, 6, 12 & 24 h post-dose. Blood samples were taken directly into heparinised tubes. Blood samples were prepared by protein precipitation and subjected to quantitative analysis by LC-MS/MS using compound-specific mass transitions. Drug concentration-time profiles were generated and non-compartmental PK analysis used to generate estimates of half-life, clearance, volume of distribution and oral bioavailability.

Another data set in a line: CNS penetration. In kind it is in vivo, male CD Sprague Dawley rats. The following applies: male, CD Sprague Dawley, iv; rat, 1 mg/kg i.v., brain 5 min post-dose. As to the method: Compounds were dosed intravenously at a nominal dose level of 1 mgkg−1 to male CD Sprague Dawley rats. Compounds were formulated in 5% DMSO/45% PEG200/50% water. Blood samples were taken under terminal anaesthesia with isoflurane at 5 min post-dose and the brains were also removed for assessment of brain penetration. Blood samples were taken directly into heparinised tubes. Blood samples were prepared for analysis using protein precipitation and brain samples were prepared using extraction of drug from brain by homogenisation and subsequent protein precipitation. The concentration of parent drug in blood and brain extracts was determined by quantitative LC-MS/MS analysis using compound-specific mass transitions.

With `C[C@@H]1CCCN1CCCOc1ccc(N2CCN(C(=O)c3ccc(F)cc3F)CC2=O)cc1` [Example E1, 4-[(2,4-Difluorophenyl)carbonyl]-1-[4-({3-[(2R)-2-methyl-1-pyrrolidinyl]propyl)oxy)phenyl]-2-piperazinone, formate salt], the oral bioavailability entry in the data set “Rat pharmacokinetics” is recorded as “approximately 48 % F”; in the data set “Dog pharmacokinetics”, “approximately 100 % F”. In the data set “CNS penetration”, this molecule came in with a concentration at 5 min of around 57.5 ng/g.
